Data published in US20160272953A1, “Activated Sugars” (ZuChem, Inc., priority 2010, published 2016).

What was measured:
Sugar-1-kinase-P = test: One-pot reaction, first step: phosphorylation by Sugar-1-kinase-P (DNS assay, TLC); format: biochemical, Pyrococcus furiosus; conditions: 8 mM sugar, 12 mM ATP, first 60 minutes
Method: (§1) Initial coupling of the reaction was tested for 1-pot synthesis of NDP-sugars. The reaction was started with 12 mM ATP, 3.5 mM MgCl2, and 8 mM of either L-Glucose or D-galactose. Partially purified Sugar-1-kinase-P was added to the mixture and a sample was taken at 0 and 60 minutes. After 60 minutes, dTTP or UTP (8 mM), 20 μL nucleotidyltransferase-S, and 2 μL of commercially available thermostable pyrophosphatase were added to the reaction and samples were taken at different time points and analyzed by TLC as shown in FIG. 7-1. […] Upon addition of the second enzyme and nucleotide, the formation of dTDP-D-galactose and dTDP-L-glucose began. The sugar nucleotides were more clearly visualized by UV, but can also been seen in the KMnO4 stained TLC plates in FIG. 6-1.

[1] = target: T1, wild-type P. furiosus enzyme (Pyrococcus furiosus, UniProt Q9HHB6); test: GalK activity by ATP to ADP conversion (HPLC), wild-type enzyme; format: biochemical; conditions: 200 mM sugar, 100 mM ATP, 1 ug/ml enzyme, 60° C., 20 hours
T1 construct: 6-His (N); made in house; host or cells: E. coli
T1 sequence (Q9HHB6 whole entry): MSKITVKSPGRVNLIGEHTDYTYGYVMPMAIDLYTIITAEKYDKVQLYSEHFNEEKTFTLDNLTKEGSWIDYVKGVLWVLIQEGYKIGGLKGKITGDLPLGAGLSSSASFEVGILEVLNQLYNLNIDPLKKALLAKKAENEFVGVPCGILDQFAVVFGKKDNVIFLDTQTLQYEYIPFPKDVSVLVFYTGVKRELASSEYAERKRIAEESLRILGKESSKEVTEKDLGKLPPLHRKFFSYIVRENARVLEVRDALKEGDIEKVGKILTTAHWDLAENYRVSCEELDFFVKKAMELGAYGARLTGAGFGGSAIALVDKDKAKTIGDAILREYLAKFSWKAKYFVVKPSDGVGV
Method: The reaction of sugars with the wild type and mutant sugar-1-kinse such as those from Pyrococcus furiousus can also be monitored by following ATP consumption in the reaction. The amount of ATP consumption directly correlates with the amount of sugar-1-kinase produced. For example, to produce additional sugar-1-phosphates a series of experiments were carried out as follows, In a reaction mix containing 50 mM sodium phosphate buffer at pH 7.5, 100 mM ATP, 200 mM of the sugar being tested, 5mM MgC12 either 1 ug/ml of either the PK27 mutant or wild-type P. furiosus enzyme were added. The reaction was incubated at 60° C. for 20 hours. ATP and ADP concentrations were analyzed by HPLC using a Supelcosil LC-18-T column with a flow rate of 1.0 mL/min of 0.05 M. KH2P04/4 mM tetrabutylammonium hydrogen sulfate and a linear gradient solvent program of 0-30% methanol over 30 min. The percent conversion of ATP to ADP was calculated. Sugar-1-phosphate was analyzed by HPLC using Supelcosil LC-SAX column 0.05 M K-phosphate buffer, pH 6.0
GalK activity by ATp to ADp conversion, 20 h. Percentages indicate degree reaction proceeded to completion within 20 hours.

[2] = test system: Sugar-1-kinase-P and nucleotidyltransferase-S; test: One-pot coupled sugar-1-kinase / nucleotidyltransferase reaction (TLC); format: biochemical; conditions: for conversion to dTDP-sugar, estimated by TLC: dTTP 8 mM as nucleotide donor
Method: as §1
The conversion is estimated to be greater than 80% based on the loss of Gal-1-P and appearance of dTDP-Gal on TLC. The reaction with L-glucose and dTTP was also successful, however, the conversion was lower and estimated to be 20% by TLC.

nucleotidyltransferase-S = test: Nucleotidyltransferase-S activity with Gal-1-P and dTTP (TLC and malachite green); format: biochemical, Streptococcus thermophilus; conditions: 7 mM Gal-1-P, 7 mM dTTP, 0.1 U pyrophosphatase
Method: The nucleotidyltransferase-S enzyme was chosen for further study due to its high expression in E. coli. Nucleotidyltransferase activity was measured with the commercially available substrate D-galactose-1-phosphate (Gal-1-P). This is not the natural substrate of homologous nucleotidyltransferases, which is D-glucose-1-phosphate. Nucleotidyltransferase-S was incubated with 7 mM Gal-1-P, 7 mM dTTP, and 0.1 U of pyrophosphatase. The reaction was monitored by two different methods. […] The second method of assay was a malachite green based inorganic phosphate assay. When dTTP is coupled to a Sugar-1-phosphate it releases pyrophosphate which is broken down to pyrophosphatase to 2 molecules of inorganic phosphate.

EP-S = test: Nucleotidylyltransferase substrate specificity by TLC, EP-S; format: biochemical, Streptococcus thermophilus; conditions: UTP, 45° C., 6 mM substrate
Source text: (§2) A fourth nucleotidlylytransferaseenzyme has been cloned from P. furiousus (EP-P2) that has previously been shown capable of converting the only commercially available L-sugar-1-phosphate (L-fucose-1-P),[47] transferring 82% to produce UDP-L-Fucose as determined by ESI-MS. EP-P2 additionally has a broad activity range on 6 other D-sugar-1-phosphates. This enzyme was cloned as a His-tag fusion and purified by IMAC. Since we had 4 different enzymes (EP-S, EP-T, EP-P, and EP-P2) with different characteristics and substrate specificities, experiments were designed to test the substrate specificities on purified nucleotidlylytransferase enzyme and pure substrates. Reactions with each of the 4 nucleotidlylytransferase enzymes were set up using 4 different sugar-1-phosphates and 2 different nucleotides (32 reactions total), with each enzyme incubated near its optimal temperature. […] Samples were taken at the time of enzyme addition and every hour for three hours and then analyzed by TLC using 80% aqueous acetonitrile +10 mM TBAHS; visualized by UV and stained in KMnO4.
(§3) The UV visible spots were circled in black for FIG. 6-3 to aid in visualization as only the nucleotides and nucleotide-activated sugars are UV active. […] Furthermore, many of the reactions proceeded to completion by the first time point analyzed.

EP-P2 [3] = test: Nucleotidylyltransferase substrate specificity by TLC, EP-P2; format: biochemical, P. furiousus; conditions: 90° C., 6 mM substrate
Source text: A fourth nucleotidlylytransferaseenzyme has been cloned from P. furiousus (EP-P2) that has previously been shown capable of converting the only commercially available L-sugar-1-phosphate (L-fucose-1-P),[47] transferring 82% to produce UDP-L-Fucose as determined by ESI-MS. EP-P2 additionally has a broad activity range on 6 other D-sugar-1-phosphates. This enzyme was cloned as a His-tag fusion and purified by IMAC. Since we had 4 different enzymes (EP-S, EP-T, EP-P, and EP-P2) with different characteristics and substrate specificities, experiments were designed to test the substrate specificities on purified nucleotidlylytransferase enzyme and pure substrates. Reactions with each of the 4 nucleotidlylytransferase enzymes were set up using 4 different sugar-1-phosphates and 2 different nucleotides (32 reactions total), with each enzyme incubated near its optimal temperature. In a total volume of 200 μL the reactions contained 25 μL of purified enzyme, 5 mM MgCl2, 6 mM nucleotide, 6 mM sugar-1-phosphate, 4 U thermophilic pyrophosphatase (commercially available). The 4 sugar-1-phosphates were D-glucose-1-phosphate, L-glucose-1-phosphate, D-galactose-1-phosphate, and D-mannose-1-phosphate, while the 2 nucleotides chosen were dTTP and UTP. EP-P and EP-P2 were incubated at 90° C., EP-T at 65° C., and EP-S at 45° C. Samples were taken at the time of enzyme addition and every hour for three hours and then analyzed by TLC using 80% aqueous acetonitrile +10 mM TBAHS; visualized by UV and stained in KMnO4.
The UV visible spots were circled in black for FIG. 6-3 to aid in visualization as only the nucleotides and nucleotide-activated sugars are UV active. The upper left plates show TLC of standard compounds. […] To our knowledge these are the first examples of commercially viable dTDP-L-glucose enzymatic production. […] EP-S had good activity on both D-glu-1P and D-mann-1P. EP-P and EP-T both were only active on D-glucose-1P with UTP as the nucleotide. […] Furthermore, many of the reactions proceeded to completion by the first time point analyzed.

EP-T = test: Nucleotidylyltransferase substrate specificity by TLC, EP-T; format: biochemical, Thermus thermophilus; conditions: 65° C., 6 mM substrate
Source text: as §2, §3

EP-P = test: Nucleotidylyltransferase substrate specificity by TLC, EP-P; format: biochemical, Pyrococcus furiosus; conditions: UTP, 90° C., 6 mM substrate
Source text: as §2, §3

E. coli GalKMLYH = target: T2, E. coli GalKMLYH (Escherichia coli, UniProt P0A6T3, D325E/M173L/Y371H); test: GalKMLYH conversion of L-sugars at 16° C.; format: biochemical; conditions: 5 hrs of incubation, partially purified cell extract
T2 construct: made in house; host or cells: E. coli
Method: The GalKMLYH enzyme was finally tested at 16° C. for the conversion of several other L-sugars using partially purified cell extract from the overexpressing E. coli strain and typical reaction conditions.

EP-P2 [4] = conditions: determined by ESI-MS; cited from earlier work
Sugar-1-kinase-S = test: Time course conversion of alternative substrates by Sugar-1-kinase-S; format: biochemical, Streptococcus thermophilus; conditions: 45° C., ~300 minutes, partially purified cell extract
WT Sugar-1-kinase-P = target: T3, WT Sugar-1-kinase-P (Pyrococcus furiosus, UniProt Q9HHB6); test: Substrate specificity of purified WT Sugar-1-kinase-P (DNS assay); format: biochemical; conditions: 8 mM sugar, 2.4 mg/ml enzyme, 12 mM ATP, 5 mM MgCl2, pH 7.5 phosphate buffer
T3 construct: 6-His (N); made in house; host or cells: E. coli
T3 sequence (Q9HHB6 whole entry): as above
Method: Often, when applying protein engineering to activity on a new substrate the resulting enzyme has relaxed substrate specificity which we wanted to achieve. The purified Sugar-1-kinase-PK27 was then tested for the conversion of a variety of sugars and compared to purified WT Sugar-1-kinase-P. The reactions were setup with 8 mM of different sugars (L-ribose, L-galactose, L-glucose, L-arabinose, L-xylose, L-rhamnose, L-mannose, L-gulose, L-fucose, and 6-Azido-D-galactose), 2.4 mg/ml enzyme, 12 mM ATP, and 5 mM MgCl2 in pH 7.5 phosphate buffer. Samples were taken every hour and analyzed by DNS assay (FIG. 4-5A).

[5] = target: engineered E. coli GalKMLYH (Escherichia coli, UniProt P0A6T3, D325E/M173L/Y371H); conditions: substrate 1.5 g/L, purified enzyme 0.6 g/L; cited from earlier work

Compound: O=C[C@H](O)[C@@H](O)[C@@H](O)[C@H](O)CO [D-Galactose]
- conversion to sugar-1-phosphate (Sugar-1-kinase-P): completely converted
- degree reaction proceeded to completion (ATP to ADP conversion), WT Pyrococcus furiosus [1]: 90%
- conversion to dTDP-sugar, estimated by TLC [2]: greater than 80%

Compound: C[C@@H](O)[C@H](O)[C@H](O)[C@@H](O)C=O [D-fucose]
- degree reaction proceeded to completion (ATP to ADP conversion), WT Pyrococcus furiosus [1]: 78%

Compound: O=P(O)(O)O[C@H]1O[C@H](CO)[C@H](O)[C@H](O)[C@H]1O [D-galactose-1-phosphate]
- activity with substrate (nucleotidyltransferase-S): active

Compound: O=P(O)(O)O[C@H]1O[C@H](CO)[C@@H](O)[C@H](O)[C@H]1O [D-glu-1P, D-glucose-1-phosphate]
- activity on sugar-1-phosphate (EP-S): good activity
- activity on sugar-1-phosphate (EP-P2 [3]; dTTP): showed activity
- activity on sugar-1-phosphate (EP-T; UTP): only active
- activity on sugar-1-phosphate (EP-T; dTTP): converted
- activity on sugar-1-phosphate (EP-P): only active

Compound: O=P(O)(O)O[C@H]1O[C@H](CO)[C@@H](O)[C@H](O)[C@@H]1O [D-mannose-1P, D-mannose-1-phosphate]
- activity on sugar-1-phosphate (EP-S): good activity
- activity on sugar-1-phosphate (EP-P2 [3]; dTTP): showed activity

Compound: O=C[C@@H](O)[C@@H](O)[C@H](O)[C@H](O)CO [D-mannose]
- degree reaction proceeded to completion (ATP to ADP conversion), WT Pyrococcus furiosus [1]: 54%

Compound: O=C[C@H](O)[C@@H](O)[C@H](O)CO [D-xylose]
- degree reaction proceeded to completion (ATP to ADP conversion), WT Pyrococcus furiosus [1]: 50%

Compound: O=C[C@H](O)[C@@H](O)[C@@H](O)CO [L-arabinose]
- activity of GalK mutant on substrate (E. coli GalKMLYH): did not display significant activity

Compound: C[C@@H]1O[C@H](OP(=O)(O)O)[C@@H](O)[C@H](O)[C@@H]1O [L-fucose-1-P]
- transfer to UDP-L-Fucose (EP-P2 [4]): 82%

Compound: C[C@H](O)[C@@H](O)[C@@H](O)[C@H](O)C=O [L-fucose]
- degree reaction proceeded to completion (ATP to ADP conversion), WT Pyrococcus furiosus [1]: 40%
- activity of GalK mutant on substrate (E. coli GalKMLYH): did not display significant activity

Compound: O=P(O)(O)OC1OC(CO)C(O)C(O)C1O [L-glu-1P, L-glucose-1-phosphate]
- activity on sugar-1-phosphate (EP-P2 [3]; UTP): did not appear to appreciably convert
- activity on sugar-1-phosphate (EP-P2 [3]; dTTP): showed activity

Compound: O=C[C@@H](O)[C@H](O)[C@@H](O)[C@@H](O)CO [L-glucose]
- reaction completion (Sugar-1-kinase-S): 95-100%
- conversion to sugar-1-phosphate (Sugar-1-kinase-P): completely converted
- activity on sugar (WT Sugar-1-kinase-P): displayed activity
- conversion to 1-phosphate [5]: 25%
- conversion to dTDP-sugar, estimated by TLC [2]: ~20%
- activity of GalK mutant on substrate (E. coli GalKMLYH): did not display significant activity

Compound: O=C[C@@H](O)[C@@H](O)[C@H](O)[C@@H](O)CO [L-gulose]
- activity of GalK mutant on substrate (E. coli GalKMLYH): did not display significant activity

Compound: O=C[C@H](O)[C@H](O)[C@@H](O)[C@@H](O)CO [L-mannose]
- activity of GalK mutant on substrate (E. coli GalKMLYH): did not display significant activity

Compound: C[C@H](O)[C@H](O)[C@@H](O)[C@@H](O)C=O [L-rhamnose]
- activity of GalK mutant on substrate (E. coli GalKMLYH): did not display significant activity

Compound: O=C[C@@H](O)[C@@H](O)[C@@H](O)CO [L-ribose]
- activity of GalK mutant on substrate (E. coli GalKMLYH): did not display significant activity

Compound: O=C[C@@H](O)[C@H](O)[C@@H](O)CO [L-xylose]
- activity of GalK mutant on substrate (E. coli GalKMLYH): did not display significant activity

Compound: O=c1ccn([C@@H]2O[C@H](COP(=O)(O)OP(=O)(O)OP(=O)(O)O)[C@@H](O)[C@H]2O)c(=O)[nH]1 [UTP]
- outcome as alternative nucleotide donor ([2]; 8 mM, one-pot coupled reaction): did not result in a successfully coupled reaction
